From patent US5773449A, “Thioquinolone compounds which have useful pharmaceutical activity” (Zenyaku Kogyo Kabushiki Kaisha, priority 1994, dated 1998)
≈ marks a conversion by molar mass, not a printed value.

Tests used:
Format in all cases: cell-based
[1] = tested on: E.faecalis RIMD 3336001; assay: Antibacterial Test 2: agar plate dilution method (aerobic MIC method), E.faecalis; conditions: Enterococcus faecalis, RIMD3336001, sensitive-disk agar medium-N
Method: (§1) Then, tested were antibacterial activities of the typical compounds of the present invention against gram-positive and-negative bacteria other than Hp. MICs of the typical compounds of the present invention were determined in substantial accordance with agar plate dilution method (aerobic MIC method) based on Standard method of The Japan Society of Chemotherapy.
(§2) The respective test compound were dissolved in dimethyl sulfoxide (DMSO) and serially diluted twofold. These diluted solutions of the compounds were respectively added to sensitive-disk agar medium-N (manufactured by NISSUI SEIYAKU) to prepare agar plates for determination with concentration of 0.05-100 μg/ml.
(§3) The below-mentioned strains freezingly conserved at -135° C. were thawed in a warm bath (40° C.), cultured in a sensitivity-determining bouillon at 37° C. for 18-20 hours, and then diluted with the above-mentioned medium to prepare about 1.0×10^6CFU/ml of bacterial solution.
(§4) Inoculation was made by 5 μl by multi-inoculator (manufactured by SAKUMA SEISAKUSHO). Culturing was made under the same conditions as those of the pre-culturing and the MIC (unit: μg/ml) was determined by observing whether the bacteria grew or not.

[2] = tested on: S.aureus FDA 209P; assay: Antibacterial Test 2: agar plate dilution method (aerobic MIC method), S.aureus; conditions: Staphylococcus aureus, FDA209P, sensitive-disk agar medium-N
Method: as §1, §2, §3, §4

[3] = tested on: E.coli NIHJ JC-2; assay: Antibacterial Test 2: agar plate dilution method (aerobic MIC method), E.coli; conditions: Escherichia coli, NIHJJC2, sensitive-disk agar medium-N
Method: as §1, §2, §3, §4

[4] = tested on: Helicobacter pylori standard strain ATCC 43526 (NCTC 11916); assay: Antibacterial test 1: agar plate dilution method (anaerobic MIC method) against Hp; conditions: 72 h; Helicobacter pylori ATCC 43526 (NCTC 11916); brucella agar + 7% horse blood, microaerobic, 37° C., 3 days
Method: Antibacterial test against Hp was performed in substantial accordance with agar plate dilution method (anaerobic MIC method) based on Standard method of The Japan Society of Chemotherapy to determine minimum inhibitory concentration (MIC) of the respective test compounds. The respective test compounds were sequentially dissolved in dimethyl sulfoxide (DMSO) and serially diluted twofold. […] Strain used for inoculation was Helicobacter pylori standard strain ATCC 43526 (NCTC 11916). For pre-culturing of bacteria to be inoculated, the above-mentioned strain freezingly conserved at -135° C. was thawed in a warm bath (40° C.), applied on a brucella agar medium containing 7% horse blood free from fibrin, and microaerobically cultured in a jar for anaerobic bacteria at 37° C. for 3 days. The solution of bacteria to be inoculated was prepared by collecting colonies grown on the culture medium and suspending the same in the brucella broth.

[5] = tested on: B.subtilis PCI 219; assay: Antibacterial Test 2: agar plate dilution method (aerobic MIC method), B.subtilis; conditions: Bacillus subtilis, PCI219, sensitive-disk agar medium-N
Method: as §1, §2, §3, §4

[6] = tested on: M.luteus ATCC 9341; assay: Antibacterial Test 2: agar plate dilution method (aerobic MIC method), M.luteus; conditions: Micrococcus luteus, ATCC9341, sensitive-disk agar medium-N
Method: as §1, §2, §3, §4

[7] = tested on: K.pneumoniae PCI 602; assay: Antibacterial Test 2: agar plate dilution method (aerobic MIC method), K.pneumoniae; conditions: Klebsiella pneumoniae, PCI602, sensitive-disk agar medium-N
Method: as §1, §2, §3, §4

[8] = tested on: P.aeruginosa IFO 3445; assay: Antibacterial Test 2: agar plate dilution method (aerobic MIC method), P.aeruginosa; conditions: Pseudomonas aeruginosa, IFO3445, sensitive-disk agar medium-N
Method: as §1, §2, §3, §4

Row | SMILES | MIC [1] | MIC [2] | MIC [3] | MIC [4] | MIC [5] | MIC [6] | MIC [7] | MIC [8]
1 | S=c1cc[nH]c2cc(-c3ccccc3)ccc12 [compound 3, 7-Phenylquinoline-4(1H)-thione] | > 100 µg/mL | > 100 µg/mL | > 100 µg/mL | 1.56 µg/mL | > 100 µg/mL | > 100 µg/mL | > 100 µg/mL | > 100 µg/mL
2 | S=c1cc[nH]c2cc(COc3ccccc3)ccc12 [compound 6, 7-Phenoxymethylquinoline-4(1H)-thione] | > 100 µg/mL | > 100 µg/mL | > 100 µg/mL | 1.56 µg/mL | > 100 µg/mL | > 100 µg/mL | > 100 µg/mL | > 100 µg/mL
3 | O=[N+]([O-])c1cccc2c(=S)cc[nH]c12 [compound 7, 8-Nitroquinoline-4(1H)-thione] |  |  |  | 6.25 µg/mL |  |  |  | 
4 | NC(=O)c1ccc2c(=S)cc[nH]c2c1 [compound 12, 7-Carbamoylquinoline-4(1H)-thione] |  |  |  | 6.25 µg/mL |  |  |  | 
5 | CC(=O)c1ccc2c(=S)cc[nH]c2c1 [compound 13, 7-Acetylquinoline-4(1H)-thione] |  |  |  | 1.56 µg/mL |  |  |  | 
6 | COCc1ccc2c(=S)cc[nH]c2c1 [compound 16, 7-Methoxymethylquinoline-4(1H)-thione] | 50 µg/mL (≈ 244 µM) | 50 µg/mL (≈ 244 µM) | > 100 µg/mL | 1.56 µg/mL | 100 µg/mL (≈ 487 µM) | 100 µg/mL (≈ 487 µM) | > 100 µg/mL | > 100 µg/mL
7 | O=[N+]([O-])c1ccc2c(=S)cc[nH]c2c1 [compound 19, 7-Nitroquinoline-4(1H)-thione] |  |  |  | 3.13 µg/mL |  |  |  | 
8 | CCOc1ccc2c(=S)cc[nH]c2c1 [compound 22, 7-Ethoxyquinoline-4(1H)-thione] | > 100 µg/mL | > 100 µg/mL | > 100 µg/mL | 3.13 µg/mL | > 100 µg/mL | > 100 µg/mL | > 100 µg/mL | > 100 µg/mL
9 | CCCCCCOc1ccc2c(=S)cc[nH]c2c1 [compound 24, 7-n-Hexyloxyquinoline-4(1H)-thione] | > 100 µg/mL | > 100 µg/mL | > 100 µg/mL | 1.56 µg/mL | > 100 µg/mL | > 100 µg/mL | > 100 µg/mL | > 100 µg/mL
10 | S=c1cc[nH]c2cc(OCc3ccccc3)ccc12 [compound 25, 7-Benzyloxyquinoline-4(1H)-thione] |  |  |  | 6.25 µg/mL |  |  |  | 
11 | CCCOc1ccc2c(=S)cc[nH]c2c1 [compound 26, 7-n-Propoxyquinoline-4(1H)-thione] | > 100 µg/mL | 100 µg/mL (≈ 456 µM) | > 100 µg/mL | 1.56 µg/mL | > 100 µg/mL | > 100 µg/mL | > 100 µg/mL | > 100 µg/mL
12 | CC(=O)OCc1ccc2c(=S)cc[nH]c2c1 [compound 29, 7-Acetoxymethylquinoline-4(1H)-thione] | 50 µg/mL (≈ 214 µM) | 25 µg/mL (≈ 107 µM) | > 100 µg/mL | 0.78 µg/mL | 100 µg/mL (≈ 429 µM) | 50 µg/mL (≈ 214 µM) | > 100 µg/mL | > 100 µg/mL
13 | CCCCCCCCCCCCc1ccc2c(=S)cc[nH]c2c1 [compound 30, 7-Dodecylquinoline-4(1H)-thione] | > 100 µg/mL | > 100 µg/mL | > 100 µg/mL | 1.56 µg/mL | > 100 µg/mL | 100 µg/mL (≈ 303 µM) | > 100 µg/mL | > 100 µg/mL
14 | CN(C)Cc1ccc2c(=S)cc[nH]c2c1 [compound 33, 7-N,N-Dimethylaminomethylquinoline-4(1H)-thione] |  |  |  | 6.25 µg/mL |  |  |  | 
15 | S=c1cc[nH]c2cc(-c3ccc4ccccc4c3)ccc12 [compound 46, 7-(2-Naphtyl)quinoline-4(1H)-thione] |  |  |  | 3.13 µg/mL |  |  |  | 
16 | CCCCCCCCCCCCOc1ccc2c(=S)cc[nH]c2c1 [compound 52, 7-Dodecyloxyquinoline-4(1H)-thione] |  |  |  | 6.25 µg/mL |  |  |  | 

Further lines, results first:

Row | MIC [1] | MIC [2] | MIC [3] | MIC [4] | MIC [5] | MIC [6] | MIC [7] | MIC [8] | SMILES
17 | 0.2 µg/mL (≈ 0.547 µM) | 0.1 µg/mL (≈ 0.274 µM) | 3.13 µg/mL (≈ 8.57 µM) | 0.05 µg/mL | 0.2 µg/mL (≈ 0.547 µM) | ≤ 0.05 µg/mL | 50 µg/mL (≈ 137 µM) | > 100 µg/mL | CC1(C)S[C@@H]2[C@H](NC(=O)[C@H](N)c3ccc(O)cc3)C(=O)N2[C@H]1C(=O)O [amoxicillin, reference compound]
18 | > 100 µg/mL | 50 µg/mL (≈ 261 µM) | > 100 µg/mL | 0.39 µg/mL | > 100 µg/mL | > 100 µg/mL | > 100 µg/mL | > 100 µg/mL | COc1ccc2c(=S)cc[nH]c2c1 [compound 1, 7-Methoxyquinoline-4(1H)-thione]
19 | > 100 µg/mL | > 100 µg/mL | > 100 µg/mL | 1.56 µg/mL | > 100 µg/mL | > 100 µg/mL | > 100 µg/mL | > 100 µg/mL | CC(C)c1ccc2c(=S)cc[nH]c2c1 [compound 2, 7-Isopropylquinoline-4(1H)-thione]
20 |  |  |  | 0.39 µg/mL |  |  |  |  | Cc1ccc2c(=S)cc[nH]c2c1 [compound 11, 7-Methylquinoline-4(1H)-thione]
21 | > 100 µg/mL | > 100 µg/mL | > 100 µg/mL | 0.39 µg/mL | > 100 µg/mL | > 100 µg/mL | > 100 µg/mL | > 100 µg/mL | CCCCCCc1ccc2c(=S)cc[nH]c2c1 [compound 15, 7-n-Hexylquinoline-4(1H)-thione]
22 | > 100 µg/mL | > 100 µg/mL | > 100 µg/mL | 0.39 µg/mL | > 100 µg/mL | > 100 µg/mL | > 100 µg/mL | > 100 µg/mL | CSc1ccc2c(=S)cc[nH]c2c1 [compound 17, 7-Methylthioquinoline-4(1H)-thione]
23 | > 100 µg/mL | > 100 µg/mL | > 100 µg/mL | 0.78 µg/mL | > 100 µg/mL | > 100 µg/mL | > 100 µg/mL | > 100 µg/mL | CC(C)Oc1ccc2c(=S)cc[nH]c2c1 [compound 23, 7-Isopropyloxyquinoline-4(1H)-thione]
24 | 50 µg/mL (≈ 196 µM) | 25 µg/mL (≈ 97.9 µM) | > 100 µg/mL | 0.39 µg/mL | > 100 µg/mL | 50 µg/mL (≈ 196 µM) | > 100 µg/mL | > 100 µg/mL | CS(=O)(=O)Oc1ccc2c(=S)cc[nH]c2c1 [compound 28, 7-Methanesulfonyloxyquinoline-4(1H)-thione]
25 | > 100 µg/mL | > 100 µg/mL | > 100 µg/mL | 0.39 µg/mL | > 100 µg/mL | > 100 µg/mL | > 100 µg/mL | > 100 µg/mL | S=c1cc[nH]c2cc(CCc3ccccc3)ccc12 [compound 31, 7-Phenethylquinoline-4(1H)-thione]
26 | > 100 µg/mL | > 100 µg/mL | > 100 µg/mL | 0.78 µg/mL | > 100 µg/mL | > 100 µg/mL | > 100 µg/mL | > 100 µg/mL | S=c1cc[nH]c2cc(/C=C/c3ccccc3)ccc12 [compound 32, trans-7-Styrylquinoline-4(1H)-thione]
27 | > 100 µg/mL | > 100 µg/mL | > 100 µg/mL | 0.78 µg/mL | > 100 µg/mL | > 100 µg/mL | > 100 µg/mL | > 100 µg/mL | CC(C)N(C)c1ccc2c(=S)cc[nH]c2c1 [compound 34, 7-(N-Isopropyl-N-methylamino)quinoline-4(1H)-thione]
28 | > 100 µg/mL | 100 µg/mL (≈ 406 µM) | > 100 µg/mL | 0.39 µg/mL | 100 µg/mL (≈ 406 µM) | 100 µg/mL (≈ 406 µM) | > 100 µg/mL | > 100 µg/mL | S=c1cc[nH]c2cc(N3CCOCC3)ccc12 [compound 36, 7-Morpholinoquinoline-4(1H)-thione]
29 | > 100 µg/mL | > 100 µg/mL | > 100 µg/mL | 0.78 µg/mL | > 100 µg/mL | > 100 µg/mL | > 100 µg/mL | > 100 µg/mL | S=c1cc[nH]c2cc(SCc3ccccc3)ccc12 [compound 37, 7-Benzylthioquinoline-4(1H)-thione]
30 | > 100 µg/mL | > 100 µg/mL | > 100 µg/mL | 0.78 µg/mL | > 100 µg/mL | > 100 µg/mL | > 100 µg/mL | > 100 µg/mL | S=c1cc[nH]c2cc(Oc3ccccc3)ccc12 [compound 38, 7-Phenoxyquinoline-4(1H)-thione]
31 |  |  |  | 0.39 µg/mL |  |  |  |  | COc1cccc2c(=S)cc[nH]c12 [compound 42, 8-Methoxyquinoline-4(1H)-thione]
32 |  |  |  | 0.39 µg/mL |  |  |  |  | S=c1cc[nH]c2c1ccc1cccnc12 [compound 45, 1,10-Phenanthroline-4(1H)-thione]
